How the values were obtained:
[1] = target: T1, lipase preparation Lipex 100 L produced by Novozymes (Thermomyces lanuginosus, UniProt O59952, N255R/T253R); experiment: LIPASE-induced fragrance emission test (Lipex 100 L); type: biochemical; settings: GC/MS head space peak area of released compound minus water control; 10 mg compound in 1 g aqueous 1% Lipex 100L; released: menthone (1-1), hexenal (1-2), citral (1-3)
T1 construct: purchased Novozymes Lipex 100 L
Description: (§1) 10 mg of each of the compounds of Examples 1-1 to 1-3 and 1 g of an aqueous 1% lipase preparation solution were charged in a vial bottle and mixed and after hermetically sealing the bottle, the mixture was subjected to GC/MS analysis of the head space component to obtain a peak area of the fragrance emitting compound. As a control, water was used in place of the aqueous 1% lipase preparation solution, and the peak area of the control was obtained by the same method.
(§2) The fragrance emission amount was determined from the difference between the peak area of the obtained fragrance emitting compound and the peak area of the control. As the lipase preparation, Lipex 100 L produced by Novozymes, and AY “Amano” 30SD produced by Amano Enzyme Inc. were used.
(§3) • Measuring apparatus: 7890GC/5975MSD (manufactured by Agilent Technologies) • Column: BC-WAX 50 m×0.25 mm I.D. • Temperature rise: 70° C.→220° C., 4° C./min • Split ratio: 60:1

[2] = system: Bacillus subtilis strain NBRC3134; experiment: Deodorizing component emission test by microorganism; type: cell-based; settings: GC/MS head space peak area minus control; 10 mg in 3 mL culture solution, 30° C. 20 hours; released: hexenal (2-2), citronellal (2-3)
Description: (§4) Culture of Staphylococcus aureus strain NBRC12732, Staphylococcus epidermidis strain JCM2414T, Corynebacterium xerosis strain JCM1324, Pseudomonas aeruginosa strain NBRC13275, Bacillus subtilis strain NBRC3134, and Moraxella osloensis strain ATCC19976:
(§5) After inoculating each of bacteria in Muller-Hinton liquid medium, shaking culture was performed at 30° C. for 20 hours. 3 mL of the resulting preculture solution was transferred to a vial bottle, and 10 mg of each of the compounds of Examples 2-2 to 2-6 was mixed, followed by hermetically sealing the bottle. Thereafter, shaking culture was further performed at 30° C. for 20 hours.
(§6) A peak area of the deodorizing compound was obtained by performing GC/MS analysis of the head space component contained in the vial bottle having 3 mL of microorganism culture solution in which 10 mg of each of the compound of Examples 2-2 to 2-6 was mixed. A microorganism culture solution having not mixed therein each of the compounds of Examples 2-2 to 2-6 was used as the control, and a peak area of the control was obtained by the same method as above.
(§7) The difference between the peak area of the deodorizing compound and the peak area of the control was calculated as the deodorizing component emission amount, and the results are shown in Tables 10 to 12.
(§8) • Measuring apparatus: 7890GC/5975MSD (manufactured by Agilent Technologies) • Column: BC-WAX 50 m×0.25 mm I.D. • Temperature rise: 70° C.→220° C., 4° C./min • Split ratio: splitless

[3] = system: Corynebacterium xerosis strain JCM1324; experiment: as above; type: cell-based; settings: GC/MS head space peak area minus control; 10 mg in 3 mL culture solution, 30° C. 20 hours; released: hexenal (2-2), citronellal (2-3)
Description: as §4, §5, §6, §7, §8

[4] = system: Moraxella osloensis strain ATCC19976; experiment: as above; type: cell-based; settings: GC/MS head space peak area minus control; 10 mg in 3 mL culture solution, 30° C. 20 hours; released: hexenal (2-2), citronellal (2-3)
Description: as §4, §5, §6, §7, §8

[5] = system: Pseudomonas aeruginosa strain NBRC13275; experiment: as above; type: cell-based; settings: GC/MS head space peak area minus control; 10 mg in 3 mL culture solution, 30° C. 20 hours; released: hexenal (2-2), citronellal (2-3)
Description: as §4, §5, §6, §7, §8

[6] = system: Staphylococcus epidermidis strain JCM2414T; experiment: as above; type: cell-based; settings: GC/MS head space peak area minus control; 10 mg in 3 mL culture solution, 30° C. 20 hours; released: hexenal (2-2), citronellal (2-3)
Description: as §4, §5, §6, §7, §8

[7] = system: Propionibacterium acnes strain JCM6473; experiment: as above; type: cell-based; settings: GC/MS head space peak area minus control; 10 mg in 3 mL culture solution, static culture 28° C. 3 days; released: hexenal (2-2), citronellal (2-3)
Description: (§9) After inoculating bacteria in GAM bouillon liquid medium containing Hemin 0.5 ppm and Menadione 0.5 ppm, static culture was performed at 28° C. for 3 days under anaerobic conditions. 3 mL of the resulting preculture solution was transferred to a vial bottle, and 10 mg of each of the compounds of Examples 2-2 to 2-6 was mixed, followed by hermetically sealing the bottle. Thereafter, static culture was further performed at 28° C. for 3 days.
as §6, §7, §8

[8] = system: lipase preparation AY "Amano" 30SD produced by Amano Enzyme Inc.; experiment: LIPASE-induced fragrance emission test (AY "Amano" 30SD); type: biochemical; settings: GC/MS head space peak area of released citral minus water control; 10 mg compound in 1 g aqueous 1% AY "Amano" 30SD
Description: as §1, §2, §3

[9] = system: Staphylococcus aureus strain NBRC12732; experiment: Deodorizing component emission test by microorganism; type: cell-based; settings: GC/MS head space peak area minus control; 10 mg compound in 3 mL culture solution, 30° C. 20 hours; released: citronellal (2-3), 2,6-dimethyl-5-heptenal (2-4), trimethylhexanal (2-5), octanal (2-6)
Description: as §4, §5, §6, §7, §8

[10] = system: Malassezia furfur strain NBRC0656; experiment: as above; type: cell-based; settings: GC/MS head space peak area of trimethylhexanal minus control; 10 mg in 3 mL culture solution, static culture 28° C. 3 days
Description: as §9, with “Sabouraud” for “GAM bouillon”, “0.1% Tween 80,” for “Hemin 0.5 ppm and Menadione 0.5 ppm,”
as §6, §7, §8

T1 sequence (O59952 23-291 T253R/N255R): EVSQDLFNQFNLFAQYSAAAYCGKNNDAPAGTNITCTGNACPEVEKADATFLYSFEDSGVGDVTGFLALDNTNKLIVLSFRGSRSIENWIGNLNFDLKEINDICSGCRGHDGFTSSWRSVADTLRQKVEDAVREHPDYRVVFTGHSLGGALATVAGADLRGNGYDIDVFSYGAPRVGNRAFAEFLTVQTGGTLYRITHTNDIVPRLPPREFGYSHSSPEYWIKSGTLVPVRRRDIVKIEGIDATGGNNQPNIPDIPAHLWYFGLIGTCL

CC(C)C1=C(OC(=O)c2ccccc2)C[C@H](C)CC1 [Example 1-1, 2-isopropyl-5-methyl-1-cyclohexenyl Benzoate]
Fragrance emission amount [1]: 76,407,359

CCC=CC=COC(=O)c1ccccc1 [Example 1-2, 1,3-hexadienyl Benzoate]
Fragrance emission amount [1]: 12,076,381 | Deodorizing component emission amount [2]: 106,596,512 | Deodorizing component emission amount [3]: 15,168,728 | Deodorizing component emission amount [4]: 8,864,491 | Deodorizing component emission amount [5]: 10,638,380 | Deodorizing component emission amount [6]: 17,179,106 | Deodorizing component emission amount [7]: 3,265,759

CC(C)=CCC=C(C)C=COC(=O)c1ccccc1 [Example 1-3, 3,7-dimethylocta-1,3,6-trienyl Benzoate]
Fragrance emission amount [1]: 5,098,870 | Fragrance emission amount [8]: 16,031,669

CC(C)=CCCC(C)C=COC(=O)c1ccccc1 (stereo not drawn) [Example 2-3, 3,7-dimethylocta-1,6-dienyl Benzoate]
Deodorizing component emission amount [2]: 66,939,425 | Deodorizing component emission amount [3]: 692,091,257 | Deodorizing component emission amount [4]: 25,608,586 | Deodorizing component emission amount [5]: 42,891,551 | Deodorizing component emission amount [9]: 1,064,240,572 | Deodorizing component emission amount [6]: 76,886,509 | Deodorizing component emission amount [7]: 15,450,553

CC(C)=CCCC(C)=COC(=O)c1ccccc1 [Example 2-4, 2,6-dimethylhepta-1,5-dienyl Benzoate]
Deodorizing component emission amount [9]: 132,554,000

CC(C=COC(=O)c1ccccc1)CC(C)(C)C (stereo not drawn) [Example 2-5, 3,5,5-trimethyl-1-hexenyl Benzoate]
Deodorizing component emission amount [9]: 189,916,125 | Deodorizing component emission amount [10]: 19,153,037

CCCCCCC=COC(=O)c1ccccc1 [Example 2-6, 1-octenyl Benzoate]
Deodorizing component emission amount [9]: 129,928,279
